Data on seven molecules can be found in patent publication US20240108617A1, “AN INHALABLE DRY POWDER COMPOSITION FOR PULMONARY DISEASES” (GLENMARK SPECIALTY S.A., priority 2019, published 2024).

A short description of series [1]: Particle size distribution, Malvern Mastersizer 2000S, wet dispersion. The series is classed as physicochemical. The conditions noted are these: PSD retested results. How it is done:
The particle size distribution studies were performed using Malvern Mastersizer 2000S using wet dispersion method. A sample of about […] of compound (I) was transferred in a beaker, and 2-3 drops of nonidet P-40 and 4-5 drops of water were added to the sample in beaker, and 25-30 ml of water was added and sonicated for 180 seconds with continuous stirring, and the dispersion/solution of compound (I) was added in sample handling unit of Hydro 20000S. The particle size measurement was done using Malvern Mastersizer 2000S.

Series [2] in a line: Compatibility with inhalation grades of lactose monohydrate. The series is classed as physicochemical. The conditions noted are these: Respitose ML006, Respitose SV010, Lactohale 201, Lactohale 200, Inhalac 230, Inhalac 70. The source says:
It was observed that compound (I) is compatible with different commercially available inhalation grades of lactose monohydrate including Respitose ML006, Respitose SV010, Lactohale 201, Lactohale 200, Inhalac 230, Inhalac 70. Lactose Monohydrate is selected as a diluent for compound (I) (micronized) with the particle size d90 of ≤5 microns.

The test system of series [3] is IL-17. In words: Ex-vivo IL-17 inhibition from bronchoalveolar lavage (BAL) cells from COPD patients. The series is classed as cell-based, human. The conditions noted are these: for IC50: stimulated BAL cells from COPD patients, read-out: IC50, IL-17 release. How it is done: The test compound was prepared by 10 mM stock of Compound (I) was prepared in 100% DMSO. The saline was prepared by 0.85 gm of NaCl weighted and dissolved in 100 mL distilled water and adjusted the pH 7.0 to pH 7.4. It was then filter sterilized.
Flexible fiber optic bronchoscopy was performed after valid consent and lignocaine nebulization. Patient was given 2 mg of IV midazolam and monitored under pulse oximetry and cardiac monitor. BAL fluid was collected with repeated aspirations of saline preferably from middle lobe.
BALF was passed through cell strainer to remove debris and mucus. BAL cells were isolated from BALf by centrifugation at 800 rpm for 10 min.
BAL cells were seeded at a density of 1×10^5 cells-2×10^5 cells/well in a 96 well plate coated with Anti-human CD3 antibody (10 μg/mL) and anti-human CD2 antibody (2 μg/mL). The plate was shaken gently and cells incubated for 5-10 minutes in an incubator with 37° C. and 5% CO2 to acclimatize. • 1. Cells were pre-incubated for 60 minutes at 37° C. with serial dilutions of Compound (I). This was followed by the addition of Anti-human CD28 antibody (2 μg/mL). • 2. Cells were incubated for 48-72 h in the incubator at 37° C. with 5% CO2. • 3. The plates were spun at 1200 rpm at 4° C. for 12 minutes, supernatant collected and used for IL17 estimation by ELISA.
(§1) Calculations: IL17 cytokine concentration in the supernatant was determined using linear regression from the standard graph and subsequently multiplied with respective dilution factors. Fold response (FR) was calculated as pg/ml of hIL17 in sample (treated) wells over pg/ml of hIL17 in Basal wells.
Percent Inhibition for each set treated with test compound was calculated by using the formula Percent Inhibition={100−(pg/mL of test compound/pg/mL of induced×100)} and IC50 values were calculated from concentration response curves by nonlinear regression analysis using GraphPad Prism software.

In series [4] the test system is IL-17. Briefly: Ex-vivo IL-17 inhibition from peripheral blood (whole blood) from COPD patients. The series is classed as cell-based. As to conditions: Homo sapiens. How it is done:
• 1. ˜8 mL whole blood was collected per patient. • 2. Human whole blood was diluted 1:1 with 0.85% NaCl. • 3. Diluted blood was loaded on a 96 well plate. Blood was pre-incubated for 60 minutes at 37° C. with serial dilutions of Compound (I). • 4. It was then transferred to 96 well plate coated with Anti-human CD3 antibody (final concentration—10 μg/mL). This was followed by the addition of Anti-human CD28 antibody (2 μg/mL). • 5. Cells were incubated for 48 h in the incubator at 37° C. with 5% CO2. The plates were spun at 1200 rpm at 4° C. for 12 minutes, supernatant collected and used for IL17 estimation by ELISA.
as §1
Percent Inhibition for each set treated with test compound was calculated by using the formula
Percent Inhibition={100−(pg/mL of test compound/pg/mL of induced×100)}
IC50 values were calculated from concentration response curves by nonlinear regression analysis using GraphPad Prism software.

The mark [5] stands for this setting: particle size data during intermediate development, listed as E.
The mark [6] stands for this setting: particle size data during initial development, listed as A.
Setting [7] is: particle size data during initial development, listed as B.
[8] abbreviates: particle size data during intermediate development, listed as D.
Setting [9] is: particle size data during initial development, listed as C.
Where [10] appears, read: particle size data during intermediate development, listed as F.

In series [1] (setting [5]), `CCc1ccccc1-c1nccnc1-c1ccc(NC(=O)Cc2ccc(C(F)(F)[C@@H](C)O)cc2)cc1` [API Batch E] yielded a d10 of 1.376 microns, a d50 of 2.591 microns and a d90 of 5.060 microns.

In series [1] (setting [6]), `CCc1ccccc1-c1nccnc1-c1ccc(NC(=O)Cc2ccc(C(F)(F)[C@@H](C)O)cc2)cc1` [API Batch A] returned a d10 of 1.222 μm, a d50 of 2.064 μm and a d90 of 3.664 μm.

Turning to `CCc1ccccc1-c1nccnc1-c1ccc(NC(=O)Cc2ccc(C(F)(F)[C@@H](C)O)cc2)cc1` [API Batch B], in series [1] (setting [7]), the d10 amounted to 0.106 μm, the d50 was found to be 1.376 μm and the d90 came out at 3.278 μm.

In series [1] (setting [8]), `CCc1ccccc1-c1nccnc1-c1ccc(NC(=O)Cc2ccc(C(F)(F)[C@@H](C)O)cc2)cc1` [API Batch D] returned a d10 of 0.110 microns, a d50 of 1.510 microns and a d90 of 3.638 microns.

Take `CCc1ccccc1-c1nccnc1-c1ccc(NC(=O)Cc2ccc(C(F)(F)C(C)O)cc2)cc1` (stereo in doubt) [Compound (I), 2-{4-[(2S)-1,1-difluoro-2-hydroxypropyl]phenyl}-N-{4-[3-(2-ethylphenyl)pyrazine-2-yl]phenyl}acetamide]: the “compatibility with commercially available inhalation grades of lactose monohydrate” value in series [2] is recorded as “compatible”. The “inhibition of IL17 release” value in the series on IL-17 [3] (BAL cells, at an ICmax concentration of 1-3 microns) was over 70%. In addition, the IC50 in the series with IL-17 [3] (Homo sapiens) worked out at 143 nM; in the series with IL-17 [3] it was 143 nM; in the series with IL-17 [4] (stimulated whole blood from COPD patients, read-out: IC50, IL17 release), 282 nM. The inhibition at 0.0001 µM was 4.97% in the series on IL-17 [3] (Homo sapiens, COPD-BAL cells, 0.1 nM) and 0.27% in the series on IL-17 [4] (Whole Blood, 0.1 nM, read-out: IL17 A (% Inhibition)). In addition, the inhibition at 0.001 µM in the series on IL-17 [3] (Homo sapiens, COPD-BAL cells, 1 nM) turned out to be 2.39%; with IL-17 [4] (Whole Blood, 1 nM, read-out: IL17 A (% Inhibition)) it was 5.57%. The inhibition at 0.003 µM with IL-17 [3] (Homo sapiens, COPD-BAL cells, 3 nM) worked out at 10.9%; with IL-17 [4] (Whole Blood, 3 nM, read-out: IL17 A (% Inhibition)) it was 14.9%. Further, the inhibition at 0.01 µM in the series with IL-17 [3] (Homo sapiens, COPD-BAL cells, 10 nM) amounted to 13.9%; in the series with IL-17 [4] (Whole Blood, 10 nM, read-out: IL17 A (% Inhibition)), 15.1%. In addition, the inhibition at 0.03 µM in the series on IL-17 [3] (Homo sapiens, COPD-BAL cells, 30 nM) is 18.7%; with IL-17 [4] (Whole Blood, 30 nM, read-out: IL17 A (% Inhibition)), 27.6%. Also, the inhibition at 0.1 µM in the series with IL-17 [3] (Homo sapiens, COPD-BAL cells, 100 nM) was found to be 41.4%; with IL-17 [4] (Whole Blood, 100 nM, read-out: IL17 A (% Inhibition)), 36.8%. In addition, the inhibition at 0.3 µM in the series on IL-17 [3] (Homo sapiens, COPD-BAL cells, 300 nM) stood at 66.8%; in the series with IL-17 [4] (Whole Blood, 300 nM, read-out: IL17 A (% Inhibition)), 43.4%. The inhibition at 1 µM worked out at 71.1% with IL-17 [3] (Homo sapiens, COPD-BAL cells, 1 μM) and 56.9% with IL-17 [4] (Whole Blood, 1 uM, read-out: IL17 A (% Inhibition)). In addition, the inhibition at 3 µM was 76.7% in the series with IL-17 [3] (Homo sapiens, COPD-BAL cells, 3 μM) and 65% in the series on IL-17 [4] (Whole Blood, 3 μM, read-out: IL17 A (% Inhibition)). In addition, the inhibition at 6 µM in the series on IL-17 [3] (Homo sapiens, COPD-BAL cells, 6 μM) amounted to 78.8%; with IL-17 [4] (Whole Blood, 6 μM, read-out: IL17 A (% Inhibition)), 69.2%. Further, the inhibition at 10 µM in the series with IL-17 [3] (Homo sapiens, COPD-BAL cells, 10 μM) came to 81.1%; in the series on IL-17 [4] (Whole Blood, 10 μM, read-out: IL17 A (% Inhibition)), 76.2%. Further, the inhibition at 20 µM in the series with IL-17 [4] (Whole Blood, 20 μM, read-out: IL17 A (% Inhibition)) was 78.8%.

As for `CCc1ccccc1-c1nccnc1-c1ccc(NC(=O)Cc2ccc(C(F)(F)[C@@H](C)O)cc2)cc1` [API Batch C], in series [1] (setting [9]), the d10 was determined as 1.128 μm, the d50 was 2.010 μm and the d90 was determined as 3.783 μm.

As to `CCc1ccccc1-c1nccnc1-c1ccc(NC(=O)Cc2ccc(C(F)(F)[C@@H](C)O)cc2)cc1` [API Batch F], in series [1] (setting [10]), the d10 stood at 1.244 microns, the d50 was 2.383 microns and the d90 amounted to 4.752 microns.
